Some results are limits rather than exact numbers.

Sequence of full-length human BTK (Q06187 whole entry): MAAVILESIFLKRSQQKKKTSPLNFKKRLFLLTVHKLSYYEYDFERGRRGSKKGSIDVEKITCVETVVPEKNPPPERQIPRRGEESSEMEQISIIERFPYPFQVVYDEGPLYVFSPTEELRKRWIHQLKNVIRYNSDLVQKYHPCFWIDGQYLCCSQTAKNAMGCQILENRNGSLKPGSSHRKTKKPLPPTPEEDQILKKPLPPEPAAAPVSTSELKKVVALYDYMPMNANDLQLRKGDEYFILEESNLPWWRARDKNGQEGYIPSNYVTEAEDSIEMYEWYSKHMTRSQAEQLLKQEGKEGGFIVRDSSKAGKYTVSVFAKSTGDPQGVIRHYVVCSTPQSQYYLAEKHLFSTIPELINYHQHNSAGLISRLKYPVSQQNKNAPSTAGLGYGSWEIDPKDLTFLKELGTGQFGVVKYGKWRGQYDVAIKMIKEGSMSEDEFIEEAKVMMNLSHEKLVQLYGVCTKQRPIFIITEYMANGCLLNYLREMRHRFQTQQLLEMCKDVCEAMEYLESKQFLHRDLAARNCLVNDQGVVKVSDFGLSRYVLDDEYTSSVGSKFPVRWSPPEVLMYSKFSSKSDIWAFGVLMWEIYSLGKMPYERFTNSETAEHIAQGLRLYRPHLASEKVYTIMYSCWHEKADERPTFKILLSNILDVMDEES

This experiment concerns the target full-length human BTK (Homo sapiens (Human), UniProt Q06187). Briefly: BTK IC50 enzyme assay (microfluidic off-chip mobility shift kinase assay). The class given is biochemical. The settings on record: incubated for 90 min. at 27 C; read-out: Time Dependent BTK Enzyme Assay IC50. As for the experimental part: The following describes a microfluidic, off-chip mobility shift kinase assay used to measure inherent potency of compounds against BTK enzyme. Compounds described by embodiments of the present invention were assayed using this protocol and the data from the same is recorded in Table 2 within the column labeled: “Time Dependent BTK Enzyme Assay IC50”.
Stopped reactions were monitored at −2 PSI, −3000 V/−700 V in a LabChip 3000 plate reader from Caliper Life Sciences, a PerkinElmer Company (Hopkinton, Mass.), and the activity was measured by off-chip mobility shift assay measuring the charge/mass difference between substrate and product resulting from peptide phosphorylation. IC50 and efficacy were determined by plotting log [Inhibitor] vs. % Activity in GeneData Screener (Basel, Switzerland). […] I<1 uM and II>1 uM.
Regarding `C=CC(=O)Nc1cccc(-c2c(Oc3ccc(Oc4ccccc4)cc3)ccnc2N)c1` [A243, N-(3-(2-amino-4-(4-phenoxyphenoxy)pyridin-3-yl)phenyl)acrylamide], the IC50 was < 100 nM.

Consider `Nc1ncnc(OC2CC3(C2)CN(C(=O)/C=C/CN2CC(F)(F)C2)C3)c1-c1ccc(Oc2ccccc2)cc1` [A223, (E)-1-(6-((6-amino-5-(4-phenoxyphenyl)pyrimidin-4-yl)oxy)-2-azaspiro[3.3]heptan-2-yl)-4-(3,3-difluoroazetidin-1-yl)but-2-en-1-one], for which the IC50 is < 1000 nM.

Turning to `C=CC(=O)Nc1cccc(Oc2ncnc(N)c2-c2cnc(OCc3ccccc3)nc2)c1` [A261, N-(3-((6-amino-2′-(benzyloxy)-[5,5′-bipyrimidin]-4-yl)oxy)phenyl)acrylamide], the IC50 was < 100 nM.

As to `C=CC(=O)Nc1cccc(Oc2ncnc(N)c2-c2ccc(OCc3ccccc3OC)cc2)c1` [A254, N-(3-((6-amino-5-(4-((2-methoxybenzyl)oxy)phenyl)pyrimidin-4-yl)oxy)phenyl)acrylamide], the IC50 is < 100 nM.

Take `C=CC(=O)Nc1ccc(F)c(Oc2ccnc(N)c2-c2ccc(Oc3ccccc3)cc2)c1` [A158, N-(3-((2-amino-3-(4-phenoxyphenyl)pyridin-4-yl)oxy)-4-fluorophenyl)acrylamide]: the IC50 was < 100 nM.

For `C=CC(=O)N1CCC(CNc2ncnc(N)c2-c2ccc(Cc3ccccc3)cc2)CC1` [A41, 1-(4-(((6-amino-5-(4-benzylphenyl)pyrimidin-4-yl)amino)methyl)piperidin-1-yl)prop-2-en-1-one], the IC50 is < 100 nM.

As for `C=CC(=O)NCCCNc1ncnc(N)c1-c1ccc(Oc2ccccc2)cc1` [A59, N-(3-((6-amino-5-(4-phenoxyphenyl)pyrimidin-4-yl)amino)propyl)acrylamide], the IC50 was < 1000 nM.

As for `C=CC(=O)N1CCC(CNc2nc(N)ncc2-c2ccc(Oc3ccccc3)cc2)CC1` [A25, 1-(4-(((2-amino-5-(4-phenoxyphenyl)pyrimidin-4-yl)amino)methyl)piperidin-1-yl)prop-2-en-1-one], the IC50 was > 1000 nM.

On to `C=CC(=O)N1CCCC(Nc2ncnc(N)c2-c2ccc(OCc3ccccc3)cc2)C1` (centres unmarked) [A269, 1-(3-((6-amino-5-(4-(benzyloxy)phenyl)pyrimidin-4-yl)amino)piperidin-1-yl)prop-2-en-1-one], for which the IC50 is < 100 nM.

In the case of `Nc1ncnc(NCC2CCN(C(=O)/C=C/CN3CC(F)C3)CC2)c1-c1ccc(Oc2ccccc2)cc1` [A218, (E)-1-(4-(((6-amino-5-(4-phenoxyphenyl)pyrimidin-4-yl)amino)methyl)piperidin-1-yl)-4-(3-fluoroazetidin-1-yl)but-2-en-1-one], the concentration for half-maximal inhibition (IC50) was < 1000 nM.

For `C=CC(=O)Nc1cccc(Oc2ccncc2-c2ccc(Oc3ccccc3)cc2)c1` [A270, N-(3-((3-(4-phenoxyphenyl)pyridin-4-yl)oxy)phenyl)acrylamide], the IC50 was < 100 nM.

In the case of `C=CC(=O)Nc1cccc(-c2cnccc2Nc2ccc(Oc3ccccc3)cc2)c1` [A267, N-(3-(4-((4-phenoxyphenyl)amino)pyridin-3-yl)phenyl)acrylamide], the IC50 was < 100 nM.

For the molecule `C=CC(=O)Nc1cccc(Oc2ncnc(N)c2-c2ccc(NC(=O)c3ccccc3)cc2)c1` [A352, N-{4-[4-(3-Acryloylamino-phenoxy)-6-amino-pyrimidin-5-yl]-phenyl}-benzamide], the IC50 was < 100 nM.

On to `CC1=CC(C)=[N+]2C1=Cc1ccc(CCC(=O)N3CCN(C/C=C/C(=O)Nc4cccc(Oc5ncnc(N)c5-c5ccc(Oc6ccccc6)cc5)c4)CC3)n1[B-]2(F)F` [A24, (E)-7-(3-(4-(4-((3-((6-amino-5-(4-phenoxyphenyl)pyrimidin-4-yl)oxy)phenyl)amino)-4-oxobut-2-en-1-yl)piperazin-1-yl)-3-oxopropyl)-5,5-difluoro-1,3-dimethyl-5H-dipyrrolo[1,2-c:2′,1′-f][1,3,2]diazaborinin-4-ium-5-uide], for which the IC50 is > 1000 nM.

As for `CN(C)C/C=C/C(=O)N1CCC(F)(CNc2ncnc(N)c2-c2ccc(Oc3ccccc3)cc2)CC1` [A227, (E)-1-(4-(((6-amino-5-(4-phenoxyphenyl)pyrimidin-4-yl)amino)methyl)-4-fluoropiperidin-1-yl)-4-(dimethylamino)but-2-en-1-one], the IC50 is < 100 nM.

In the case of `C=CC(=O)N1CCC(CNc2ncnc(N)c2-c2ccc(Oc3ccccc3)cc2)(C(=O)O)CC1` [A216, 1-acryloyl-4-(((6-amino-5-(4-phenoxyphenyl)pyrimidin-4-yl)amino)methyl)piperidine-4-carboxylic acid], the half-maximal inhibitory concentration (IC50) is < 100 nM.

As to `C=CC(=O)N1CCC(Nc2ncnc(N)c2-c2ccc(Oc3ccccc3)cc2)CC12CCC2` (centres unmarked) [A125, 1-(8-((6-amino-5-(4-phenoxyphenyl)pyrimidin-4-yl)amino)-5-azaspiro[3.5]nonan-5-yl)prop-2-en-1-one], the IC50 is > 1000 nM.

With `C=CC(=O)Nc1cccc(-c2c(N)ncnc2Nc2ccc(Oc3ccccc3)cc2)c1` [A241, N-(3-(4-amino-6-((4-phenoxyphenyl)amino)pyrimidin-5-yl)phenyl)acrylamide], the IC50 is < 100 nM.

Take `C=CC(=O)N1CCC(CN(C)c2nc(C)nc(N)c2-c2ccc(Oc3ccccc3)cc2)CC1` [A44, 1-(4-(((6-amino-2-methyl-5-(4-phenoxyphenyl)pyrimidin-4-yl)(methyl)amino)methyl)piperidin-1-yl)prop-2-en-1-one]: the IC50 was > 1000 nM.

Take `C=CC(=O)N1CCC(CNc2ncnc(N)c2-c2ccc(C(=O)Nc3ccccc3)cc2)C1` (centres unmarked) [A155, 4-(4-(((1-acryloylpyrrolidin-3-yl)methyl)amino)-6-aminopyrimidin-5-yl)-N-phenylbenzamide]: the IC50 was > 1000 nM.

With `NCc1cccc(-c2cnccc2Oc2ccc(Oc3ccccc3)cc2)c1` [A316, (3-(4-(4-phenoxyphenoxy)pyridin-3-yl)phenyl)methanamine], the concentration for half-maximal inhibition (IC50) was > 1000 nM.

Turning to `Nc1ncnc(Oc2cccc(NC(=O)CCl)c2)c1-c1ccc(OCc2ccccc2)cc1` [A347, N-{3-[6-Amino-5-(4-benzyloxy-phenyl)-pyrimidin-4-yloxy]-phenyl}-2-chloro-acetamide], the IC50 was < 100 nM.

Turning to `CCC(=O)Nc1ccc(Oc2ncnc(N)c2-c2ccc(Oc3ccccc3)cc2)cc1` [A308, N-(4-((6-amino-5-(4-phenoxyphenyl)pyrimidin-4-yl)oxy)phenyl)propionamide], the IC50 is > 1000 nM.

Consider `CN(C)C/C=C/C(=O)N1CC2(CC(Oc3ncnc(N)c3Cl)C2)C1` [A102, (E)-1-(6-((6-amino-5-chloropyrimidin-4-yl)oxy)-2-azaspiro[3.3]heptan-2-yl)-4-(dimethylamino)but-2-en-1-one], for which the IC50 is > 1000 nM.

Consider `CN(C)C/C=C/C(=O)Nc1cccc(-c2c(N)ncnc2Oc2ccc(Oc3ccccc3)cc2)c1` [A248, (E)-N-(3-(4-amino-6-(4-phenoxyphenoxy)pyrimidin-5-yl)phenyl)-4-(dimethylamino)but-2-enamide], for which the concentration for half-maximal inhibition (IC50) is < 100 nM.

As for `Nc1ncnc(N[C@@H]2CCCN(S(=O)(=O)c3c(F)c(F)c(F)c(F)c3F)C2)c1-c1ccc(Oc2ccccc2)cc1` [A179, (R)-N4-(1-((perfluorophenyl)sulfonyl)piperidin-3-yl)-5-(4-phenoxyphenyl)pyrimidine-4,6-diamine], the half-inhibitory concentration (IC50) is < 1000 nM.

As to `C=CC(=O)Nc1cccc(Oc2ncnc(N)c2-c2cnn(Cc3ccc(OC)cc3)c2)c1` [A72, N-(3-((6-amino-5-(1-(4-methoxybenzyl)-1H-pyrazol-4-yl)pyrimidin-4-yl)oxy)phenyl)acrylamide], the IC50 was < 100 nM.

In the case of `C=CC(=O)Nc1cccc(Oc2ncnc(N)c2-c2ccc(C(C)(C)O)cc2)c1` [A278, N-(3-((6-amino-5-(4-(2-hydroxypropan-2-yl)phenyl)pyrimidin-4-yl)oxy)phenyl)acrylamide], the IC50 was < 100 nM.

Consider `C=CC(=O)N1CCCC(Nc2nc(N)ncc2-c2ccc(Oc3ccccc3)cc2)C1` (centres unmarked) [A150, 1-(3-((2-amino-5-(4-phenoxyphenyl)pyrimidin-4-yl)amino)piperidin-1-yl)prop-2-en-1-one], for which the half-inhibitory concentration (IC50) is < 1000 nM.

On to `N#CC1(C(=O)Nc2cccc(Oc3ncnc(N)c3-c3ccc(Oc4ccccc4)cc3)c2)CC1` [A329, N-(3-((6-amino-5-(4-phenoxyphenyl)pyrimidin-4-yl)oxy)phenyl)-1-cyanocyclopropanecarboxamide], for which the half-maximal inhibitory concentration (IC50) was > 1000 nM.

With `C=CC(=O)N1CCC2(CCC2Nc2ncnc(N)c2-c2ccc(Oc3ccccc3)cc2)CC1` (centres unmarked) [A123, 1-(1-((6-amino-5-(4-phenoxyphenyl)pyrimidin-4-yl)amino)-7-azaspiro[3.5]nonan-7-yl)prop-2-en-1-one], the IC50 was > 1000 nM.

For `CN(C)C/C=C/C(=O)N[C@@H]1CCC[C@H](Nc2ncnc(N)c2-c2ccc(Oc3ccccc3)cc2)C1` (relative stereo) [A63, (E)-N-(cis-3-((6-amino-5-(4-phenoxyphenyl)pyrimidin-4-yl)amino)cyclohexyl)-4-(dimethylamino)but-2-enamide], the half-maximal inhibitory concentration (IC50) is < 1000 nM.

For `C=CC(=O)N1C2CCC1CC(CNc1ncnc(N)c1-c1ccc(Oc3ccc(C#N)cc3)cc1)C2` (centres unmarked) [A208, 4-(4-(4-(((8-acryloyl-8-azabicyclo[3.2.1]octan-3-yl)methyl)amino)-6-aminopyrimidin-5-yl)phenoxy)benzonitrile], the half-maximal inhibitory concentration (IC50) was > 1000 nM.

Turning to `C=CC(=O)N1CCCC(Nc2ncncc2-c2ccc(Oc3ccccc3)cc2)C1` (centres unmarked) [A284, 1-(3-((5-(4-phenoxyphenyl)pyrimidin-4-yl)amino)piperidin-1-yl)prop-2-en-1-one], the IC50 was < 1000 nM.

On to `C=CC(=O)Nc1cccc(Oc2ncnc(N)c2-c2cnn(Cc3ccc(C#N)cc3)c2)c1` [A69, N-(3-((6-amino-5-(1-(4-cyanobenzyl)-1H-pyrazol-4-yl)pyrimidin-4-yl)oxy)phenyl)acrylamide], for which the IC50 is < 1000 nM.

In general, IC50 refers to the concentration needed to halve the response being measured.

These data come from patent US9580449B2, “Compositions and methods for the production of pyrimidine and pyridine compounds with BTK inhibitory activity” (Merck Patent GmbH, priority 2011, dated 2017).
